Laboratory results published in patent publication US4322412A, “Anthracycline glycosides, their preparation, use and compositions thereof” (priority 1979, dated 1982).
≈ marks a conversion by molar mass, not a printed value. Structures can show the parent of a compound that is named as a salt. Where two headings read alike, the source gives them in different places.

What was measured:
HeLa cells = assay: Effect on HeLa Cells Cloning Efficiency In Vitro; format: cell-based; conditions: for IC50: Homo sapiens, HeLa, read-out: ID50 (HeLa cells cloning efficiency); for cytotoxicity relative to parent compounds: in words, vs respective parent compounds (Table 1)
Method: ^(a) HeLa cells were exposed to the test compounds for 24 hours, then
plated. The number of colonies was evaluated 5 days later.

P-388 ascitic leukemia = assay: Antitumor Activity on Ascitic P 388 Leukemia in Mice; format: in vivo; conditions: for antitumor activity relative to parent compounds: at the maximal tolerated dose; for in vivo toxicity relative to parent compounds: vs parent compounds; for in vivo toxicity: even at a dose of 200 mg/kg; for antitumor activity relative to daunorubicin: vs daunorubicin in the same experiment
Method: Several of the new compounds of the invention were tested on HeLa cells cloning efficiency in vitro and on P-388 ascitic leukemia in mice, in comparison with daunorubicin and doxorubicin.
Antitumor Activity on Ascitic P 388 Leukemia in Mice
^(a) Mice were treated i.p. on day 1 after tumor cells inoculation.
^(b) Median survival time of treated mice/median survival time of
^(c) Evaluated on the basis of macroscopic autoptic findings.
^(d) Data of two separate experiments.

[1] = 24 hours exposure, then plated, colonies evaluated 5 days later

COc1cccc2c1C(=O)c1c(O)c3c(c(O)c1C2=O)C[C@@](O)(C(C)=O)C[C@@H]3O[C@H]1C[C@H](N)[C@H](O)[C@H](C)O1 [Daunorubicin . HCl, daunorubicin, reference compound]
IC50 (HeLa cells; 24 h): 0.0072 µg/mL
Toxic Deaths (macroscopic autoptic findings) (P-388 ascitic leukemia; 2.9 mg/kg i.p. day 1, two separate experiments, first value): 0/10
Toxic Deaths (macroscopic autoptic findings) (P-388 ascitic leukemia; 2.9 mg/kg i.p. day 1, two separate experiments, second value): 0/8
Toxic Deaths (macroscopic autoptic findings) (P-388 ascitic leukemia; 4.4 mg/kg i.p. day 1, two separate experiments, first value): 3/10
Toxic Deaths (macroscopic autoptic findings) (P-388 ascitic leukemia; 4.4 mg/kg i.p. day 1, two separate experiments, second value): 0/6
Toxic Deaths (macroscopic autoptic findings) (P-388 ascitic leukemia; 6.6 mg/kg i.p. day 1, two separate experiments, first value): 8/10
Toxic Deaths (macroscopic autoptic findings) (P-388 ascitic leukemia; 6.6 mg/kg i.p. day 1, two separate experiments, second value): 0/6

COc1cccc2c1C(=O)c1c(O)c3c(c(O)c1C2=O)C[C@@](O)(C(=O)CO)C[C@@H]3O[C@H]1C[C@H](N)[C@H](O)[C@H](C)O1 [Doxorubicin . HCl (adriamycin), doxorubicin, reference compound]
IC50 (HeLa cells; 24 h): 0.0095 µg/mL
T/C (median survival time of treated mice/control mice × 100) (P-388 ascitic leukemia; 4.4 mg/kg i.p. day 1): 219%
Toxic Deaths (macroscopic autoptic findings) (P-388 ascitic leukemia; 4.4 mg/kg i.p. day 1): 0/8
T/C (median survival time of treated mice/control mice × 100) (P-388 ascitic leukemia; 6.6 mg/kg i.p. day 1): 223%
Toxic Deaths (macroscopic autoptic findings) (P-388 ascitic leukemia; 6.6 mg/kg i.p. day 1): 0/8
T/C (median survival time of treated mice/control mice × 100) (P-388 ascitic leukemia; 10 mg/kg i.p. day 1): 180%
Toxic Deaths (macroscopic autoptic findings) (P-388 ascitic leukemia; 10 mg/kg i.p. day 1): 4/8

COc1cccc2c1C(=O)c1c(cc3c(c1O)[C@@H](O[C@H]1C[C@H](N)[C@H](OC)[C@H](C)O1)C[C@](O)(C(C)=O)C3)C2=O [II, 4'-O-methyl-11-deoxy-daunorubicin]
IC50 (HeLa cells; [1]): 0.066 µg/mL (≈ 0.126 µM)
cytotoxicity relative to parent compounds (HeLa cells): less cytotoxic than their respective parent compounds
T/C (median survival time of treated mice/control mice × 100) (P-388 ascitic leukemia; 25 mg/kg i.p. day 1): 180%
Toxic Deaths (macroscopic autoptic findings) (P-388 ascitic leukemia; 25 mg/kg i.p. day 1): 0/9
T/C (median survival time of treated mice/control mice × 100) (P-388 ascitic leukemia; 50 mg/kg i.p. day 1): 225%
Toxic Deaths (macroscopic autoptic findings) (P-388 ascitic leukemia; 50 mg/kg i.p. day 1): 1/9
antitumor activity relative to parent compounds (P-388 ascitic leukemia; in words): comparable to that of the parent compounds
in vivo toxicity relative to parent compounds (P-388 ascitic leukemia; in words): less toxic in vivo

COc1cccc2c1C(=O)c1c(cc3c(c1O)[C@@H](O[C@H]1C[C@H](N)[C@H](OC)[C@H](C)O1)C[C@](O)(C(=O)CO)C3)C2=O [III, 4'-O-methyl-11-deoxy-doxorubicin]
IC50 (HeLa cells; [1]): 0.022 µg/mL (≈ 0.0406 µM)
cytotoxicity relative to parent compounds (HeLa cells): less cytotoxic than their respective parent compounds
T/C (median survival time of treated mice/control mice × 100) (P-388 ascitic leukemia; 6.6 mg/kg i.p. day 1): 195%
Toxic Deaths (macroscopic autoptic findings) (P-388 ascitic leukemia; 6.6 mg/kg i.p. day 1): 0/8
T/C (median survival time of treated mice/control mice × 100) (P-388 ascitic leukemia; 10 mg/kg i.p. day 1): 209%
Toxic Deaths (macroscopic autoptic findings) (P-388 ascitic leukemia; 10 mg/kg i.p. day 1): 0/8
T/C (median survival time of treated mice/control mice × 100) (P-388 ascitic leukemia; 15 mg/kg i.p. day 1): 238%
Toxic Deaths (macroscopic autoptic findings) (P-388 ascitic leukemia; 15 mg/kg i.p. day 1): 0/7
T/C (median survival time of treated mice/control mice × 100) (P-388 ascitic leukemia; 22.5 mg/kg i.p. day 1): 214%
Toxic Deaths (macroscopic autoptic findings) (P-388 ascitic leukemia; 22.5 mg/kg i.p. day 1): 0/10
range of active and non-toxic doses (P-388 ascitic leukemia; in words): wide range of active and non-toxic doses
antitumor activity relative to parent compounds (P-388 ascitic leukemia; in words): comparable to that of the parent compounds
in vivo toxicity relative to parent compounds (P-388 ascitic leukemia; in words): less toxic in vivo

COc1cccc2c1C(=O)c1c(cc3c(c1OC)[C@@H](O[C@H]1C[C@H](N)[C@H](OC)[C@H](C)O1)C[C@](O)(C(C)=O)C3)C2=O [IV, 4',6-di-O-methyl-11-deoxy-daunorubicin]
IC50 (HeLa cells; [1]): 1 µg/mL (≈ 1.85 µM)

COc1cccc2c1C(=O)c1c(O)c3c(c(OC)c1C2=O)C[C@@](O)(C(C)=O)C[C@@H]3O[C@H]1C[C@H](N)[C@H](O)[C@H](C)O1 [VI, 11-O-methyl-daunorubicin]
IC50 (HeLa cells; [1]): 0.4 µg/mL (≈ 0.739 µM)
cytotoxicity relative to parent compounds (HeLa cells): markedly less cytotoxic than are their parent compounds
T/C (median survival time of treated mice/control mice × 100) (P-388 ascitic leukemia; 100 mg/kg i.p. day 1): 111%
Toxic Deaths (macroscopic autoptic findings) (P-388 ascitic leukemia; 100 mg/kg i.p. day 1): 0/4
T/C (median survival time of treated mice/control mice × 100) (P-388 ascitic leukemia; 200 mg/kg i.p. day 1): 122%
Toxic Deaths (macroscopic autoptic findings) (P-388 ascitic leukemia; 200 mg/kg i.p. day 1): 0/3
in vivo toxicity (P-388 ascitic leukemia; in words): not toxic
antitumor activity relative to daunorubicin (P-388 ascitic leukemia; in words): comparable to that of daunorubicin

COc1cccc2c1C(=O)c1c(O)c3c(c(OC)c1C2=O)C[C@@](O)(C(C)=O)C[C@@H]3O[C@H]1C[C@H](N)[C@H](OC)[C@H](C)O1 [VIII, 4',11-di-O-methyl-daunorubicin]
IC50 (HeLa cells; [1]): 0.5 µg/mL (≈ 0.9 µM)
cytotoxicity relative to parent compounds (HeLa cells): markedly less cytotoxic than are their parent compounds
T/C (median survival time of treated mice/control mice × 100) (P-388 ascitic leukemia; 100 mg/kg i.p. day 1): 111%
Toxic Deaths (macroscopic autoptic findings) (P-388 ascitic leukemia; 100 mg/kg i.p. day 1): 0/6
T/C (median survival time of treated mice/control mice × 100) (P-388 ascitic leukemia; 200 mg/kg i.p. day 1): 122%
Toxic Deaths (macroscopic autoptic findings) (P-388 ascitic leukemia; 200 mg/kg i.p. day 1): 0/6
in vivo toxicity (P-388 ascitic leukemia; in words): not toxic
antitumor activity relative to daunorubicin (P-388 ascitic leukemia; in words): comparable to that of daunorubicin
